Legend:
cisplatin-induced emesis = assay: Blockade of cisplatin-induced emesis in dogs; type: in vivo; details: Canis lupus familiaris, iv, read-out: ED₅₀
From the text: These compounds may also be used as antiemetic agents. […] Since 5HT₃ receptors are prevalent in the GI tract, other potential uses include other diseases of the gastro- intestinal tract, such as ischemic bowel, esophageal reflux, etc.

5-HT₃ receptor = molecular target: T1, 5-HT₃ receptor (Rattus norvegicus, UniProt P35563); assay: Inhibition of serotonin-induced Von Bezold-Jarisch reflex in rats; type: in vivo; details: rat, iv, 15 minutes prior to 5-HT, read-out: Percent Inhibition of Reflex in Rats; for inhibition at 0.001 mg/kg: 0.001 mg/kg I.V.; for inhibition at 0.003 mg/kg: 0.003 mg/kg I.V.; for inhibition at 0.01 mg/kg: 0.01 mg/kg I.V.
T1 construct: from tissue
T1 sequence (P35563 24-483): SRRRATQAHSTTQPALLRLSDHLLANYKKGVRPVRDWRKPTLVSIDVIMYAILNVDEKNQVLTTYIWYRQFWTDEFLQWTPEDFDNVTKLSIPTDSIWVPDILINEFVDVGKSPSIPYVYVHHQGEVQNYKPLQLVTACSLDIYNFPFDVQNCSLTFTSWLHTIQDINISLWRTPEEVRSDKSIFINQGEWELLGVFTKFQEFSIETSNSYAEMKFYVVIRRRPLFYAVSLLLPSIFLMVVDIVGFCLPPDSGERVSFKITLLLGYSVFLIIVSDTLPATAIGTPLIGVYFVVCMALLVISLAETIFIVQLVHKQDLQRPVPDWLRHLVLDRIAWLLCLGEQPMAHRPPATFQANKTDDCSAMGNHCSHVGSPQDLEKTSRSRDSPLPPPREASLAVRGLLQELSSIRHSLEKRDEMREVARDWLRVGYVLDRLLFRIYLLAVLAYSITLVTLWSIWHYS
From the text: The compounds of Formula I of this invention are long-acting, orally effective specific 5-HT₃ receptor antagonists, rendering them useful for the treatment of migraine. Because of this mechanism, the compounds of this invention should also be useful for treating emesis, motion sickness, ischemic bowel disease, diabetic gastric paresis, relaxation of the gastro-intestinal tract for instrumentation, other gastro-intestinal pain following surgery, obstetrics or as in abdominal cramps, and for treating CNS disorders such as schizophrenia and anxiety. The ability of these compounds to antagonize the effects of 5-HT was assessed by their inhibition of the Von Bezold-Jarisch reflex induced by 5-HT injected intravenously into the rat (See Paintal, Physiol. Rev., 53, 159 (1973)). When administered by the intravenous route 15 minutes prior to the administration of 5-HT, the compounds of this invention were effective in inhibiting the serotonin-induced Bezold-Jarisch reflex as summarized in Table 1 below: Table 1

SMILES	ED50 (cisplatin-induced emesis) [mg/kg]	inhibition at 0.001 mg/kg (5-HT₃ receptor) [%]	inhibition at 0.003 mg/kg (5-HT₃ receptor) [%]	inhibition at 0.01 mg/kg (5-HT₃ receptor) [%]
CN1[C@@H]2CC[C@H]1C[C@@H](NC(=O)c1cc(Cl)cc3c1OC(C)(C)C3)C2 [Example 19, Endo-5-chloro-2,3-dihydro-2,2-dimethyl-N-(8-methyl-8-azabicyclo[3.2.1.]oct-3-yl)-7-benzofurancarboxamide (Z)-2-butenedioate]	0.0356	66	90	
COc1cc2c(c(C(=O)N[C@H]3C[C@H]4CC[C@@H](C3)N4C)c1)OC(C)(C)C2 [Example 41, Endo-2,3-dihydro-2,2-dimethyl-5-methoxy-N-(8-methyl-8-azabicyclo[3.2.1]oct-3-yl)-7-benzofurancarboxamide (Z)-2-butenedioate]				-1
CC1(C)Cc2cc(Cl)cc(C(=O)NC3CN4CCC3CC4)c2O1 (stereo not shown) [Example 49, 2,3-Dihydro-5-chloro-2,2-dimethyl-N-(1-azabicyclo[2.2.2]oct-3-yl)-7-benzofurancarboxamide (Z)-2-butenedioate]			40	89
CN1[C@@H]2CC[C@H]1C[C@@H](NC(=O)c1c(Cl)ccc3c1OC(C)(C)C3)C2 [Example 50, Endo-2,2-dimethyl-2,3-dihydro-6-chloro-N-(8-methyl-8-azabicyclo[3.2.1]oct-3-yl)-7-benzofurancarboxamide (Z)-2-butenedioate]				-3
COc1ccc(C(=O)N[C@H]2C[C@H]3CC[C@@H](C2)N3C)c2c1CC(C)(C)O2 [Example 52, Endo-2,3-dihydro-4-methoxy-2,2-dimethyl-N-(8-methyl-8-azabicyclo[3.2.1]oct-3-yl)-7-benzofurancarboxamide (Z)-2-butenedioate]			-7	
CC1(C)CCc2cccc(C(=O)NC3CN4CCC3CC4)c2O1 (stereo not shown) [Example 53, N-(1-azabicyclo[2.2.2]oct-3-yl)-3,4-dihydro-2,2-dimethyl-2H-1-benzopyran-8-carboxamide (Z)-2-butenedioate]		50	93	
CN1[C@@H]2CCC[C@H]1C[C@@H](NC(=O)c1cc(Cl)cc3c1OC(C)(C)C3)C2 [Example 54]			84	94
CN1[C@@H]2CCC[C@H]1C[C@@H](NC(=O)c1cccc3c1OC(C)(C)C3)C2 [Example 55, Endo-2,3-dihydro-2,2-dimethyl-N-(9-methyl-9-azabicyclo[3.3.1]non-3-yl)-7-benzofurancarboxamide (Z)-2-butenedioate]			88	
CN1[C@@H]2CC[C@H]1C[C@@H](NC(=O)c1cc(Cl)c(N)c3c1OC(C)(C)C3)C2 [Example 56, Endo-2,3-dihydro-4-amino-5-chloro-2,2-dimethyl-N-(8-methyl-8-azabicyclo[3.2.1]oct-3-yl)-7-benzofurancarboxamide (Z)-2-butenedioate]			25	89
COc1c(Cl)cc(C(=O)N[C@H]2C[C@H]3CC[C@@H](C2)N3C)c2c1CC(C)(C)O2 [Example 57, Endo-5-chloro-2,3-dihydro-4-methoxy-2,2-dimethyl-N-(8-methyl-8-azabicyclo[3.2.1]oct-3-yl)-7-benzofurancarboxamide (Z)-2-butenedioate]				3
CN1C2CCC1CC(NC(=O)c1cc(F)cc3c1OC(C)(C)C3)C2 (stereo not shown) [Example 58, 5-Fluoro-2,3-dihydro-2,2-dimethyl-N-(8-methyl-8-azabicyclo[3.2.1]oct-3-yl)-7-benzofurancarboxamide (Z)-2-butenedioate]				71
CC1(C)Cc2cccc(C(=O)NC3CN4CCC3CC4)c2O1 (stereo not shown) [Example 60, 2,3-Dihydro-2,2-dimethyl-N-(1-azabicyclo[2.2.2]oct-3-yl)-7-benzofurancarboxamide (Z)-2-butenedioate]		25	87	
CN1[C@@H]2CC[C@H]1C[C@@H](NC(=O)c1cc(Cl)cc3c1OC(C)(C)CC3)C2 [Example 61, Endo-2,2-dimethyl-6-chloro-N-(8-methyl-8-azabicyclo[3.2.1]oct-3-yl)-8-chromancarboxamide (Z)-2-butenedioate]			30	91
CN1[C@@H]2CC[C@H]1C[C@@H](NC(=O)c1cc(O)cc3c1OC(C)(C)C3)C2 [Example 62, Endo-2,3-dihydro-5-hydroxy-2,2-dimethyl-N-(8-methyl-8-azabicyclo[3.2.1]oct-3-yl)-7-benzofurancarboxamide (Z)-2-butenedioate]				54

Source: EP0307172A2, “Improvements in or relating to specific 5-HT3 antagonists” (ELI LILLY AND COMPANY, priority 1987, dated 1989)
